Assay results published in ChEMBL document CHEMBL3271972, “Potentiation of the estrogenic activity of stilbestrol by spiro (cyclohexane-1,2'-indan)-1',4-dione” (1976).

Assays:
Assay type in all cases: functional
Mus musculus [1] = assay: Potentiation of stilbestrol-induced estrogenic activity in albino ICI mouse assessed as uterus weight at 0.1 ug, sc qd for 3 days (reference value: 28 +/- 2 mg)
Mus musculus [2] = assay: Estrogenic activity in albino ICI mouse assessed as body […] ratio at 100 ug, sc qd for 3 days (reference value: 232.2 +/- 10.4)
Mus musculus [3] = assay: Estrogenic activity in albino ICI mouse assessed as body weight at 100 ug, sc qd for 3 days (reference value: 12.1 +/- 0.7 gram)
Mus musculus [4] = assay: Estrogenic activity in albino ICI mouse assessed as uterus weight at 0.1 ug, sc qd for 3 days (reference value: 28 +/- 2 mg)
Mus musculus [5] = assay: Potentiation of stilbestrol-induced estrogenic activity in albino ICI mouse assessed as body weight at 100 ug, sc qd for 3 days (reference value: 12.1 +/- 0.7 gram)
Mus musculus [6] = assay: Estrogenic activity in albino ICI mouse assessed as body weight at 0.1 ug, sc qd for 3 days (reference value: 12.1 +/- 0.7 gram)
Mus musculus [7] = assay: Potentiation of stilbestrol-induced estrogenic activity in albino ICI mouse assessed as body weight at 0.1 ug, sc qd for 3 days (reference value: 12.1 +/- 0.7 gram)
Mus musculus [8] = assay: Estrogenic activity in albino ICI mouse assessed as body […] ratio at 0.1 ug, sc qd for 3 days (reference value: 232.2 +/- 10.4)
Mus musculus [9] = assay: Potentiation of stilbestrol-induced estrogenic activity in albino ICI mouse assessed as uterus weight at 100 ug, sc qd for 3 days (reference value: 28 +/- 2 mg)
Mus musculus [10] = assay: Potentiation of stilbestrol-induced estrogenic activity in albino ICI mouse assessed as body […] ratio at 0.1 ug, sc qd for 3 days (reference value: 232.2 +/- 10.4)
Mus musculus [11] = assay: Estrogenic activity in albino ICI mouse assessed as uterus weight at 100 ug, sc qd for 3 days (reference value: 28 +/- 2 mg)
Mus musculus [12] = assay: Potentiation of stilbestrol-induced estrogenic activity in albino ICI mouse assessed as body […] ratio at 100 ug, sc qd for 3 days (reference value: 232.2 +/- 10.4)

| Compound | Activity (Mus musculus [1]) [mg] | Ratio (Mus musculus [2]) | Activity (Mus musculus [3]) [g] | Activity (Mus musculus [4]) [mg] | Activity (Mus musculus [5]) [g] | Activity (Mus musculus [6]) [g] | Activity (Mus musculus [7]) [g] | Ratio (Mus musculus [8]) | Activity (Mus musculus [9]) [mg] | Ratio (Mus musculus [10]) | Activity (Mus musculus [11]) [mg] | Ratio (Mus musculus [12]) |
| --- | --- | --- | --- | --- | --- | --- | --- | --- | --- | --- | --- | --- |
| O=C1CCC2(CC1)Cc1ccccc1C2=O | 145 | 212.7 | 13.3 | 35.5 | 14.1 | 14.1 | 15.2 | 252 | 192.3 | 957.1 | 28.3 | 1366.9 |
| CC/C(=C(/CC)c1ccc(O)cc1)c1ccc(O)cc1 [DIETHYLSTILBESTROL] |  |  |  | 148 |  | 16.8 |  | 882 |  |  |  |  |
